Data published in patent US7629318B2, “Immunosuppressant compounds, methods and uses related thereto” (priority 2002, dated 2009).
pIC50: −log10 of the molar value. Numbered stars: 1 amine (or outer) side, 2 acyl side, 3 side chain; on linkers, the order of the positions; unused ones are H or OH. Square brackets hold non-standard residues; d marks the D form. Peptide text beside a SMILES is read from it. Gly(1-amidinopiperidin-4-yl) = N=C(N)N1CCC([C@H](N)C(=O)O)CC1; X1 = CC(C)c1oc([C@H](CO)N[*:1])nc1C(=O)[*:2]; Pro(3R-Ph) = O=C(O)[C@H]1NCC[C@@H]1c1ccccc1; Tic = O=C(O)[C@@H]1Cc2ccccc2CN1; Cha = N[C@@H](CC1CCCCC1)C(=O)O; Nle = CCCC[C@H](N)C(=O)O

Tests used:
[1] = Stability of compounds in rat blood plasma; type: in vitro ADME
In short: (§1)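 Compounds at 5 μM final in rat, mouse or human plasma, incubated at 37 °C and sampled at 0, 6 and 24 h. Proteins precipitated with acetonitrile and the supernatant dried and reconstituted in 50% acetonitrile/0.1% TFA. PBS controls run for unstable compounds.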

[2] = biological target: DR4Dw14 (DRA1*0101 DRB1*0404) (Homo sapiens, UniProt P01903+P01911, A100R/A169T/F76Y/I96L/K127E/L162R/M171V/N62H/P40V/Q125Y/R42H/S133A/S149N/S66Y/V209L/W38E); test: Competitive binding to MHC-II protein DR4Dw14; conditions: 0404; read-out: Protein binding IC50 (nM) 0404
In short: (§2)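 Each MHC-II allele incubated with compound 16 hours at room temperature in duplicate; controls lacked compound, or both compound and MHC-II. Complexes captured 2 h at 4 °C, bound biotinylated peptide detected via europium-streptavidin and DELFIA enhancement, time-resolved fluorescence read at ex 340/em 613 (615) nm.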

[3] = biological target: Cathepsin B1 (EC 3.4.22.1 from bovine spleen) (Bos taurus, UniProt P07688); conditions: Cathepsin B, 4 h
[4] = biological target: T1, LG2 (DR1: DRA1*0101 DRB1*0101) cells (Homo sapiens, UniProt P01903+P01911, A100R/D57E/F55L/F60I/F76Y/I96L/L162R/M171V/P40L/Q125E/R42F/V115G/Y59C); test: Competitive binding to MHC II proteins expressed on LG2 cells; type: cell-based; conditions: Cell binding IC50 (uM) LG2 (0101), LG2 (0101)
T1 construct: MHC II Proteins Expressed on PRIESS and LG2 Cells; endogenous in cells; host or cells: LG2 cells
In short: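 LG2 or Priess cells incubated 4 h at 37° C, 6% CO2 in 1% FCS with 10-fold compound dilutions (series 16 nM-1615 μM) and biotinylated-detectable indicator peptide (16 μM solution added). Lysates captured 2 h at 4° C; bound peptide detected via europium-streptavidin time-resolved fluorescence (ex 340, em 613 nm).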

[5] = Stability of compounds in human blood plasma; type: in vitro ADME
In short: as §1

[6] = tested on: T-cell proliferation, DR14-LN
[7] = Stability of compounds in mouse blood plasma; type: in vitro ADME
In short: as §1

[8] = biological target: DR1 (DRA1*0101 DRB1*0101) (Homo sapiens, UniProt P01903+P01911, A100R/D57E/F55L/F60I/F76Y/I96L/L162R/M171V/P40L/Q125E/R42F/V115G/Y59C); test: Competitive binding to MHC-II protein DR1; conditions: Protein binding IC50 (nM) 0101, 0101
In short: as §2

## CCCC[C@H](NC(=O)[C@@H]1Cc2ccccc2CN1C(=O)[C@@H](NC(=O)[C@H](CC1CCCCC1)NC(C)=O)C1CCN(C(=N)N)CC1)C(=O)N1CC[C@H](c2ccccc2)[C@H]1C(=O)N[C@@H](CO)c1nc(C(=O)N(C)C)c(C(C)C)o1 [Compound P53, Ac-Cha-Gpg-Tic-Nle-βPhPro-[S(oxaz)L]-NMe2] (Ac-[Cha][Gly(1-amidinopiperidin-4-yl)][Tic][Nle][Pro(3R-Ph)][X1]-NMe2)
[1]
  Stability (Arbitrary units) Rat 6 h: 114 Arbitrary units
  Stability (Arbitrary units) Rat 24 h: 108 Arbitrary units
[2]
  IC50: 180 nM
[3]
  Stability (Arbitrary units) Cath B 4 h: 97 Arbitrary units
[4]
  IC50: 3.5 µM
[5]
  Stability (Arbitrary units) Human 6 h: 110 Arbitrary units
  Stability (Arbitrary units) Human 24 h: 122 Arbitrary units
[6]; maximal inhibition
  Immunsupressive assays DR14-LN (Max) % Inhibition: 101%
[6]; read-out: Immunsupressive assays DR14-LN (IC50)
  pIC50: 4.49
[7]
  Stability (Arbitrary units) Mouse 6 h: 117 Arbitrary units
  Stability (Arbitrary units) Mouse 24 h: 115 Arbitrary units
[8]
  IC50: 340 nM
